Assay results from ChEMBL document CHEMBL1201862, “PubChem BioAssay data set” (2004).
Calls of active or inactive are those of the source.

Experiments:
Estrogen receptor [1] = molecular target: T1, Estrogen receptor (Homo sapiens, UniProt P03372);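 further: potency for inhibiting coactivator peptide recruitment to the receptor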
T1 sequence (P03372 whole entry): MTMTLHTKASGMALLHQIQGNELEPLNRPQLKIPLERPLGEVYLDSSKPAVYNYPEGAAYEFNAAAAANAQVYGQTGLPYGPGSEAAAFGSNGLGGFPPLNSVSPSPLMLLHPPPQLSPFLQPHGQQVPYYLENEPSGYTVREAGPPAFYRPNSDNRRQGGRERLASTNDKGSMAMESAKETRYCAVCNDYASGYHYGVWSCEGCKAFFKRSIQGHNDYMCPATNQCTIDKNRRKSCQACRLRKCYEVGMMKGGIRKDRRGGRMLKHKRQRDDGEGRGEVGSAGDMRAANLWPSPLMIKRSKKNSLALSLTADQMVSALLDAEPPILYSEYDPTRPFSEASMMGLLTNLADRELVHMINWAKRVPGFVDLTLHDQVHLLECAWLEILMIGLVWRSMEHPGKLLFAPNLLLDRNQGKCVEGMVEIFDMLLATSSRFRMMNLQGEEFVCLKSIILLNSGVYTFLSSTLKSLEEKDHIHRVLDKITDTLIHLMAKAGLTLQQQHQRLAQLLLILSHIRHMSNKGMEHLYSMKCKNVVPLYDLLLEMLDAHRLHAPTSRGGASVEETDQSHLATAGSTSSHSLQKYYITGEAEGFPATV

SUMO-activating enzyme [2] = molecular target: T2, SUMO-activating enzyme (Homo sapiens, UniProt Q9UBT2); assay: SUMOylation inhibitor hit validation, confirmation, SUMOylation inhibitor project, biochemical, AlphaScreen (AID 2018); type: functional
T2 sequence (Q9UBE0 whole entry, the tested form may be a part): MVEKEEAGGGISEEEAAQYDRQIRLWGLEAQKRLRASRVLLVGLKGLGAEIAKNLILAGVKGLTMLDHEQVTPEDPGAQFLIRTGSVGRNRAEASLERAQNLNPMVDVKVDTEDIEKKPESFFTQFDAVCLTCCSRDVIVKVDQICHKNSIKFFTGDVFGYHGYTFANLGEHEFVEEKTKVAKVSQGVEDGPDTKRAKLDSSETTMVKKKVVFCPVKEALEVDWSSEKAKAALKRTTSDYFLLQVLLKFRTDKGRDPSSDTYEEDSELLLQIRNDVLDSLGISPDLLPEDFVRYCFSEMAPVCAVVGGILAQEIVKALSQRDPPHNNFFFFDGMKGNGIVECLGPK
T2 sequence (Q9UBT2 whole entry, the tested form may be a part): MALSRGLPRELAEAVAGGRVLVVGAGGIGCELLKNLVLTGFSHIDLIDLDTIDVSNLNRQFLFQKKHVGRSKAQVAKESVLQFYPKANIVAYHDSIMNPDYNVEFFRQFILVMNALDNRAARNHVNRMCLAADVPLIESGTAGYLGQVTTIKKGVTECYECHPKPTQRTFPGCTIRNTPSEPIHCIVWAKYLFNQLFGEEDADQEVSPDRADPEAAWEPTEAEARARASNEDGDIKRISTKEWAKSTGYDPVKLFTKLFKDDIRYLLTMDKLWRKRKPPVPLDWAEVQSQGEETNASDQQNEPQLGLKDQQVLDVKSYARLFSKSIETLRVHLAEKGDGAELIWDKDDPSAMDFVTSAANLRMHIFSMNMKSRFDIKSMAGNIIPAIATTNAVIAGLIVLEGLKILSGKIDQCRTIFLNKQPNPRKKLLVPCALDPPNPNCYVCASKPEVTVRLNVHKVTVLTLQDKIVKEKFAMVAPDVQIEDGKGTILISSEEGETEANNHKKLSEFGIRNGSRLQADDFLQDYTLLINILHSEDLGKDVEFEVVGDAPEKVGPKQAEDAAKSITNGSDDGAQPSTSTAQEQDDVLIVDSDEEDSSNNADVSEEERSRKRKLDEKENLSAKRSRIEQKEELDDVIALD

Estrogen receptor [3] = molecular target: T1, Estrogen receptor; assay: potentiators of ERα–SRC-1 coactivator binding, dose response, biochemical, TR-FRET, ERα LBD (AID 737)
SUMO-activating enzyme [4] = molecular target: T2, SUMO-activating enzyme; assay: inhibitors of in vitro SUMOylation cascade, primary screen, biochemical, HTRF, uHTS (AID 2006); type: protein-complex assay
[5] = Luminescence Cell-Based Dose Confirmation HTS to Identify Inhibitors of 5'UTR Stem-Loop Driven Alpha-Synuclein mRNA Translation in H4 Neuroglioblastoma Cells. [Related pubchem assays: 1827 (Project Summary), 1813 (Primary HTS)]; type: functional
[6] = Luminescence Cell-Based Dose Retest to Confirm Activators of 5'UTR Stem-Loop Driven Alpha-Synuclein mRNA Translation in H4 Neuroglioblastoma Cells. [Related pubchem assays (depositor defined):AID1813, AID1829]; type: functional
[7] = Luminescence Cell-Based Dose Response HTS to Identify Activators of Luciferase Translation or Activity in H4-C Neuroglioblastoma Cells. [Related pubchem assays: 1829 (Project Summary), 1814 (Primary HTS)]; type: functional
[8] = Luminescence Cell-Based Dose Response HTS to Identify Activators of 5'UTR Stem-Loop Driven Prion Protein mRNA Translation in H4-C Neuroglioblastoma Cells. [Related pubchem assays: 1829 (Project Summary), 1814 (Primary HTS)]; type: functional
[9] = Luminescence Cell-Based Dose Response HTS to Identify Inhibitors of Luciferase Translation or Activity in H4-C Neuroglioblastoma Cells. [Related pubchem assays: 1813 (Primary HTS), 1827 (Project Summary)]; type: functional
[10] = Luminescence Cell-Based Dose HTS Response to Identify Inhibitors of 5'UTR Stem-Loop Driven Prion Protein mRNA Translation in H4-C Neuroglioblastoma Cells. [Related pubchem assays (depositor defined):AID1814, AID1827]; type: functional
[11] = molecular target: Intestinal-type alkaline phosphatase (Homo sapiens, UniProt P09923); assay: activation of human intestinal alkaline phosphatase – biochemical, dose response (AID 488873); type: functional
Sequence of Intestinal-type alkaline phosphatase (Homo sapiens, UniProt P09923) (P09923 whole entry): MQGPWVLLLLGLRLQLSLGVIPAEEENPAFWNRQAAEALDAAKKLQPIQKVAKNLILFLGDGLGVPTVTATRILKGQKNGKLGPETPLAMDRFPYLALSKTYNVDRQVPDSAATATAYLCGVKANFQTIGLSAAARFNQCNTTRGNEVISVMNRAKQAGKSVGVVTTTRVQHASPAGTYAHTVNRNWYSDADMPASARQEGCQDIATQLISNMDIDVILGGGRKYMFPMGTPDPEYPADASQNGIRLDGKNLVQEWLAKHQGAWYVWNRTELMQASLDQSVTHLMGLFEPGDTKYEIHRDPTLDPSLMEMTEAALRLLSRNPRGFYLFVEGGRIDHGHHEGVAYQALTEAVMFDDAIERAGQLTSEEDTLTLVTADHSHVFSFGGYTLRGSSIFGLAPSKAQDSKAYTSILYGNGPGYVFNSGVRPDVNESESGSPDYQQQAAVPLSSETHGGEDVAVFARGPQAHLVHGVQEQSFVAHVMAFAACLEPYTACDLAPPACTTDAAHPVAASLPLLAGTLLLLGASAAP

[12] = molecular target: Intestinal-type alkaline phosphatase (Mus musculus, UniProt P24822); assay: mouse intestinal alkaline phosphatase activators, dose response, biochemical, luminescence, uHTS hits (AID 488783); type: functional
Sequence of Intestinal-type alkaline phosphatase (Mus musculus, UniProt P24822) (P24822 whole entry, the tested form may be a part): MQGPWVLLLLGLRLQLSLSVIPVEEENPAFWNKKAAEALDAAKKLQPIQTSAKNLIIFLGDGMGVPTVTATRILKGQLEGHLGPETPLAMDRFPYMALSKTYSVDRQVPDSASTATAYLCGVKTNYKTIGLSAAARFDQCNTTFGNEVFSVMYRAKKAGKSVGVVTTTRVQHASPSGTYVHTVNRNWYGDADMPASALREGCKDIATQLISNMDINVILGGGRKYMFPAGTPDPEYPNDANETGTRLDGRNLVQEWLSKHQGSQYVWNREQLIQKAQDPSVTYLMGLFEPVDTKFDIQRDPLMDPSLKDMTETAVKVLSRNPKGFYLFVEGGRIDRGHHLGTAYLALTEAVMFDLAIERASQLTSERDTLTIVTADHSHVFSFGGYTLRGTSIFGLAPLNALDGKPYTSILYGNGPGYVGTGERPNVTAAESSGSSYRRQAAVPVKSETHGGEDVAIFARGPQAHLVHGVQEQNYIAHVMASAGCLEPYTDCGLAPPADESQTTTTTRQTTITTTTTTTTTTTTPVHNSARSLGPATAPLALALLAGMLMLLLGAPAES

[13] = molecular target: T3, RNA-binding protein pos-1 (Caenorhabditis elegans, UniProt G5EF15); assay: inhibitors of POS-1/mex-3 RNA binding, dose response, biochemical, fluorescence polarization (AID 1964);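 further: purified POS-1 fused to maltose binding protein made in E. coli; potency of compounds blocking POS-1 binding to fluorescent RNA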
T3 sequence (G5EF15 whole entry): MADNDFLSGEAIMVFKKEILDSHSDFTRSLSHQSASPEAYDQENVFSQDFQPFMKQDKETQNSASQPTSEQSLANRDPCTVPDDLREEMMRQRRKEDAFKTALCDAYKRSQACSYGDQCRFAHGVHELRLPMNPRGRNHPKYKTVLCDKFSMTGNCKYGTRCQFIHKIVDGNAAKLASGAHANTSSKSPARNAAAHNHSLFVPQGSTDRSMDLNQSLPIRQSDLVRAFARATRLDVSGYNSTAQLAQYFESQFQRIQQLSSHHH

Large T antigen = Large T antigen (Simian virus 40, UniProt P03070); type: functional, Betapolyomavirus macacae;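 further: Confirmatory-stage PubChem screen for compounds that inhibit SV40 T antigen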
[14] = molecular target: T4, Zinc finger protein mex-5 (Caenorhabditis elegans, UniProt Q9XUB2); assay: MEX-5/TCR-2 RNA interaction inhibitors, dose response, biochemical, C. elegans, fluorescence polarization (AID 1960)
T4 sequence (Q9XUB2 whole entry): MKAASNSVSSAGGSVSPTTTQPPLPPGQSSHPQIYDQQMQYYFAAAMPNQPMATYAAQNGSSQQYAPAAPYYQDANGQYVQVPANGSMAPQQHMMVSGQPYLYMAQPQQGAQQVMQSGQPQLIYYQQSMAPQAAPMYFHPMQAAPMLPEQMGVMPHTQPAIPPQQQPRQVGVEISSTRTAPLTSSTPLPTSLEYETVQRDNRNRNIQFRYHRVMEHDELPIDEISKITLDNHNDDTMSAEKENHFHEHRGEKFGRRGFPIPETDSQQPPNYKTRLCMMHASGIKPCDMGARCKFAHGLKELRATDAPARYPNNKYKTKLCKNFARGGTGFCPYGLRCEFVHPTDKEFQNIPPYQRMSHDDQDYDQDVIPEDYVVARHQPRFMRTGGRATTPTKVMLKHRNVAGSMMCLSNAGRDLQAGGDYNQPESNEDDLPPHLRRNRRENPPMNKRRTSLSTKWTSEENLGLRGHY

[15] = molecular target: T5, Alkaline phosphatase, tissue-nonspecific isozyme (Homo sapiens, UniProt P05186); assay: TNAP enzyme activators, dose response, selectivity assay for mouse IAP activator project, biochemical, TNAP isozyme, mouse IAP uHTS hits (AID 488880); type: functional
T5 sequence (P05186 whole entry): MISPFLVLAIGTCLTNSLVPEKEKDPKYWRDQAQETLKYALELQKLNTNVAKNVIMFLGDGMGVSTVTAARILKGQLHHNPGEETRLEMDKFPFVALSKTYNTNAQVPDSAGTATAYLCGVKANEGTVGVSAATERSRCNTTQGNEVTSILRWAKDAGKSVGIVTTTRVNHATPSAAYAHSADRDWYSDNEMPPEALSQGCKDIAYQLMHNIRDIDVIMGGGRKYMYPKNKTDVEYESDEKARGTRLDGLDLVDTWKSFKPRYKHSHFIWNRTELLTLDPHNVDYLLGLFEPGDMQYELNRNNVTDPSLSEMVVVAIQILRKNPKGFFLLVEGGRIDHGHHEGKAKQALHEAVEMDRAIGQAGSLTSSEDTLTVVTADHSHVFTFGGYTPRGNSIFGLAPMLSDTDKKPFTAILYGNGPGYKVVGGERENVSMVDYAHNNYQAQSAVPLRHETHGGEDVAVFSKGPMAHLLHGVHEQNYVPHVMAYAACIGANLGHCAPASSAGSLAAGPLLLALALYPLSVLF

[16] = molecular target: T6, Kappa-type opioid receptor (Homo sapiens, UniProt P41145); assay: SAR analysis of small molecule agonists of the kappa opioid receptor via a luminescent beta-arrestin assay - Set 2. [Related pubchem assays (depositor defined):AID1777, AID1785, AID1786, AID1966, AID2133, AID2136, AID2284, AID449737]; type: functional
T6 sequence (P41145 whole entry): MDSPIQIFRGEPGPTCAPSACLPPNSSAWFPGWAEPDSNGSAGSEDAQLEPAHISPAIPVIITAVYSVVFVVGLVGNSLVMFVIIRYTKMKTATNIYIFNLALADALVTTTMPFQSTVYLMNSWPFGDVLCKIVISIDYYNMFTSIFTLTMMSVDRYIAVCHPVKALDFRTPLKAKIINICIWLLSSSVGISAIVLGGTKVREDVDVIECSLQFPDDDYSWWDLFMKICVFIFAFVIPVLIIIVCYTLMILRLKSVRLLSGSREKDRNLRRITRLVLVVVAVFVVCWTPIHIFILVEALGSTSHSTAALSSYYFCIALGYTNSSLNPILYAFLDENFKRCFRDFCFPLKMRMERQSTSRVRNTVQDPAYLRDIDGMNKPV

[17] = molecular target: T6, Kappa-type opioid receptor; assay: SAR analysis of Antagonists of the Kappa Opioid Receptor (KOR) using an Image-Based Assay - Set 2. [Related pubchem assays (depositor defined):AID1777, AID1785, AID1786, AID1966, AID2133, AID2136, AID2284, AID2285, AID2348]; type: functional
Mu-type opioid receptor [18] = molecular target: T7, Mu-type opioid receptor (Homo sapiens, UniProt P35372); assay: SAR Analysis of Agonists of the MOR Receptor using an Image-Based Assay - Set 2. [Related pubchem assays (depositor defined):AID1777, AID1785, AID1786, AID1966, AID2133, AID2136, AID2284, AID2285, AID2352]; type: functional
T7 sequence (P35372 whole entry): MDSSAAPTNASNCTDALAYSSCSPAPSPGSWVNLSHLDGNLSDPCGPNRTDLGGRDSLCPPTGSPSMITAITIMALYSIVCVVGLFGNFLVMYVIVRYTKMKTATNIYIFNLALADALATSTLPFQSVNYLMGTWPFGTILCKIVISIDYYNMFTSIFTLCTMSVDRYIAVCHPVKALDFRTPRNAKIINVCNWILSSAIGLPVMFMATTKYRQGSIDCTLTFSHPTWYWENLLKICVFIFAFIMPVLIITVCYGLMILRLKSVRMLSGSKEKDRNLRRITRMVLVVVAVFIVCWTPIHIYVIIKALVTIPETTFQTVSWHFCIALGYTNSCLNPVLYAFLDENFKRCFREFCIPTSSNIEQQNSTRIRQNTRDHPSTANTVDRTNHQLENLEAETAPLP

[19] = molecular target: T6, Kappa-type opioid receptor; assay: SAR analysis of Agonists of the Kappa Opioid Receptor (KOR) using an Image-Based Assay - Set 2. [Related pubchem assays (depositor defined):AID1777, AID1786, AID1966, AID2133, AID2136, AID2284, AID2285, AID2359]; type: functional
[20] = molecular target: T8, Delta-type opioid receptor (Homo sapiens, UniProt P41143); assay: SAR Analysis of Agonists of the DOR Receptor using an Image-Based Assay - Set 2. [Related pubchem assays (depositor defined):AID1777, AID1785, AID1786, AID1966, AID2133, AID2136, AID2284, AID2285, AID2370]; type: functional
T8 sequence (P41143 whole entry): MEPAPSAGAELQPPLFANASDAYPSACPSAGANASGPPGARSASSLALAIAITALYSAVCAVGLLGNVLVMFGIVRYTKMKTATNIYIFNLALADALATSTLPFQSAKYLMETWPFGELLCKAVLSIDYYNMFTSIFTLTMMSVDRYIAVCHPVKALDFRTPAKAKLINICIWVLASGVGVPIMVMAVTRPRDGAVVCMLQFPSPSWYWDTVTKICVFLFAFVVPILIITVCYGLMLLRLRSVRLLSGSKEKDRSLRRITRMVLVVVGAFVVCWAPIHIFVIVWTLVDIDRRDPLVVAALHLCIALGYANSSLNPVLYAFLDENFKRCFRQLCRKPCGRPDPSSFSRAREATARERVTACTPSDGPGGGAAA

Mu-type opioid receptor [21] = molecular target: T7, Mu-type opioid receptor; assay: SAR Analysis of Antagonists of the MOR Receptor using an Image-Based Assay - Set 2. [Related pubchem assays (depositor defined):AID1777, AID1785, AID1786, AID1966, AID2133, AID2136, AID2284, AID2285, AID2420]; type: functional
[22] = molecular target: T8, Delta-type opioid receptor; assay: SAR Analysis of Antagonists of the DOR Receptor using an Image-Based Assay - Set 2. [Related pubchem assays (depositor defined):AID1777, AID1785, AID1786, AID1966, AID2133, AID2136, AID2284, AID2285, AID2357]; type: functional
[23] = molecular target: T9, G-protein coupled receptor 55 (Homo sapiens, UniProt Q9Y2T6); assay: SAR analysis of selective Agonists of GPR55 using an Image-Based Assay. [Related pubchem assays (depositor defined):AID1961, AID1965]; type: functional
T9 sequence (Q9Y2T6 whole entry): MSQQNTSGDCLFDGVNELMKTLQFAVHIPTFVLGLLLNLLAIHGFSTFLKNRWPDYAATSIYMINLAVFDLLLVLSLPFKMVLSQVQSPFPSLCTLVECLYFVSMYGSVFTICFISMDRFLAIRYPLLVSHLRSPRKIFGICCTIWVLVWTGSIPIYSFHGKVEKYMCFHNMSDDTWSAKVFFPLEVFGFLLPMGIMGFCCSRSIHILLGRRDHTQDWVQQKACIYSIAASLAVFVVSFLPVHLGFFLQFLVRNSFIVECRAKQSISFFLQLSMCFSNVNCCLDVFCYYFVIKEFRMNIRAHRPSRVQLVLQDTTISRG

Cannabinoid receptor 2 [24] = molecular target: T10, Cannabinoid receptor 2 (Homo sapiens, UniProt P34972); assay: SAR analysis of agonists of the Cannabinoid Receptor 2 using an Image-Based Assay - Set 2. [Related pubchem assays (depositor defined):AID1961, AID1965]; type: functional
T10 sequence (P34972 whole entry): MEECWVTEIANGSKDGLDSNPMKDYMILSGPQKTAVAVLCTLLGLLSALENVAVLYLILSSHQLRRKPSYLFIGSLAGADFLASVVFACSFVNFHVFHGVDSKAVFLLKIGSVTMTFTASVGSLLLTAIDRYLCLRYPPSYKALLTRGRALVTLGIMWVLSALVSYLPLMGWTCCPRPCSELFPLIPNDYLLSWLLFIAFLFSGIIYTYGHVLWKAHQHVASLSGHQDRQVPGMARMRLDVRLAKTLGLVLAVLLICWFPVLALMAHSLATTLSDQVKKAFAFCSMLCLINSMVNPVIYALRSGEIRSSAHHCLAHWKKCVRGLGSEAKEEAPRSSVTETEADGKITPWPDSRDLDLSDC

[25] = molecular target: T9, G-protein coupled receptor 55; assay: GPR55 agonists via beta-arrestin recruitment, primary screen, imaging, U2OS cells, beta-arrestin-GFP redistribution (AID 1961); type: functional
Cannabinoid receptor 2 [26] = molecular target: T10, Cannabinoid receptor 2; assay: SAR analysis of antagonists of the Cannabinoid Receptor 2 using an Image-Based Assay - Set 2. [Related pubchem assays (depositor defined):AID1961, AID1965]; type: functional
Cannabinoid receptor 1 = Cannabinoid receptor 1 (Homo sapiens, UniProt P21554); assay: SAR analysis of antagonists of the Cannabinoid Receptor 1 using an Image-Based Assay. [Related pubchem assays (depositor defined):AID1961, AID1965]; type: functional
Sequence of Cannabinoid receptor 1 (P21554 whole entry): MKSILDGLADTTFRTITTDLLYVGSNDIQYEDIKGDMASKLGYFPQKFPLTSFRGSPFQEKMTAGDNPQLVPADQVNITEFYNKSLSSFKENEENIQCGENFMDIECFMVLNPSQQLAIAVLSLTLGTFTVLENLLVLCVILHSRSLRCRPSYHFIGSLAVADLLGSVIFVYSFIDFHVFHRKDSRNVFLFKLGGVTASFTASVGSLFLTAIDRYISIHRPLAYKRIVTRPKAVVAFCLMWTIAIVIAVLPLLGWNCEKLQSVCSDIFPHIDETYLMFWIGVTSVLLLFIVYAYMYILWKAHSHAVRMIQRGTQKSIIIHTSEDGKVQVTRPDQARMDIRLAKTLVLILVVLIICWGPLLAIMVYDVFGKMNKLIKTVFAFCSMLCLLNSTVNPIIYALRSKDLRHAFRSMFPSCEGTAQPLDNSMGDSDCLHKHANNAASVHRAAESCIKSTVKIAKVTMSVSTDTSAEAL

[27] = molecular target: Voltage-dependent T-type calcium channel subunit alpha-1H (Homo sapiens, UniProt O95180); assay: Cav3.2 T-type channel inhibitors, synthesized analogs, SAR follow-up, cell-based, synthetic library set 2, HEK293 HH8, Fluo-4 (AID 493023); type: functional

O=c1cc(CSc2nnnn2-c2ccccc2)nc(Nc2ccc(F)cc2)[nH]1
IC50 (Estrogen receptor [1]): > 50 µM (not active) | IC50 (SUMO-activating enzyme [2]): 11.5 µM (active) | EC50 (Estrogen receptor [3]): 12.5 µM (active) | IC50 (SUMO-activating enzyme [4]): 6.47 µM (active)

CC[n+]1c(/C=C/C=C/c2ccc(N(C)C)cc2)sc2ccccc21
EC50 [5]: 26.3 µM (active) | EC50 [6]: 26.3 µM (inconclusive) | EC50 [7]: 2.69 µM (inconclusive) | EC50 [8]: 1.54 µM (inconclusive) | EC50 [9]: 2.69 µM (active) | EC50 [10]: 1.54 µM (active)

Oc1ccc(-c2csc(Nc3ccccn3)n2)cc1O
EC50 [11]: 48.7 µM (active) | EC50 [12]: 24.9 µM (active) | EC50 [13]: 74.1 µM (active) | IC50 (Large T antigen): 51.7 µM (active) | EC50 [14]: 17.3 µM (active) | EC50 [15]: 47.9 µM (active)

Cc1ccc(CSc2nnc(-c3ccccn3)n2Cc2ccco2)cc1
EC50 [16]: 6.21 µM (active) | IC50 [17]: > 32 µM (inactive) | EC50 (Mu-type opioid receptor [18]): > 32 µM (inactive) | EC50 [19]: 5.21 µM (active) | EC50 [20]: > 32 µM (inactive) | IC50 (Mu-type opioid receptor [21]): > 32 µM (inactive) | IC50 [22]: > 32 µM (inactive)

COc1ccc(S(=O)(=O)N2CCOCC2)cc1NC(=O)c1cc2c(s1)CCCC2
EC50 [23]: 0.305 µM (active) | EC50 (Cannabinoid receptor 2 [24]): > 32 µM (inactive) | EC50 [25]: 0.524 µM (active) | IC50 (Cannabinoid receptor 2 [26]): > 32 µM (inactive) | IC50 (Cannabinoid receptor 1): > 32 µM (inactive)

O=C(N[C@@H]1CCCN(Cc2ccccc2)C1)c1cc(Cl)cc(Cl)c1
EC50 [27]: 10 µM (active)
